# pIC50: −log10 of the molar value. Like-named read-outs stand apart in the source and are kept apart here.
# Columns and labels:
# UM-UC-9 engineered cells = assay: Cell proliferation / short-term viability assay, CellTiter-Glo 144 h; format: cell-based, human; conditions: read-out: CTGlo 144 h UMUC9.5, G150
# How it was run: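 Viability read by CellTiter-Glo 2.0 luminescence at day 7 versus DMSO-vehicle wells and a T0 plate measured on day 0. Cells: UM-UC-9 engineered assay-ready stocks, 500 cells/well in high-glucose DMEM with 10% FBS, 37° C, 5% CO2.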
# His6-TEV-PPARγ-(234-505) = target: T1, His6-TEV-PPARγ-(234-505) (Homo sapiens, UniProt P37231); assay: TR-FRET Assay to Measure Co-R Peptide Recruitment to PPARγ; format: biochemical; conditions: Co-R peptide (SMRT-ID2) recruitment; top final concentration 20 μM; read-out: TR-FRET i-Ag; AC50
# T1 construct: The His6-TEV-PPARγ-(234-505) protein for assay was expressed and purified; TEV cleavage site (N); made in house
# T1 sequence (P37231 234-505): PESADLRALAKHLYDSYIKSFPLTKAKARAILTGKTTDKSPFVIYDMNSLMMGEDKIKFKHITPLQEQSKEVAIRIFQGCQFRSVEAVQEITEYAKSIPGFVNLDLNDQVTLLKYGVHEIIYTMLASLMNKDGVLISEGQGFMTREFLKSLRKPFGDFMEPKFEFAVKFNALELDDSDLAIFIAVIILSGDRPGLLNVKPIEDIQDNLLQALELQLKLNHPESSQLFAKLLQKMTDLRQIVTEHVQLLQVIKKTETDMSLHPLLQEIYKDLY
# How it was run: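 Corepressor recruitment is measured by adding terbium-labeled anti-His antibody and FITC SMRT-ID2 peptide, at 5 and 200 nM final, after a 20-minute room-temperature protein–compound incubation. After one further hour, signal is converted to percent response between DMSO and 500 nM T0070907 wells.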
AC50 (His6-TEV-PPARγ-(234-505)) [nM],Molecule,"pIC50 (UM-UC-9 engineered cells; Homo sapiens, UM-UC-9, 144 h)",pIC50 (UM-UC-9 engineered cells)
1760,"COc1cc(-c2cc(C(=O)N3CC[C@@H](C(=O)NCc4cccc(Cl)c4)CC3(C)C)n[nH]2)c(Cl)cn1 (single isomer, unassigned) [Example 255-B]",5.39,
8.7,"COc1cc(-c2cc(C(=O)N3CC[C@H](C(=O)NC4CCN(c5cnnc(C)c5)C4)CC34CC4)n[nH]2)c(F)cn1 (single isomer, unassigned) [Example 452-A]",,5.70
494,"COc1cc(-c2cc(C(=O)N3CCC(C(=O)NCc4cnccc4C)CC3)n[nH]2)c(Cl)cn1 [Example 131, 1-(5-(5-chloro-2-methoxypyridin-4-yl)-1H-pyrazole-3-carbonyl)-N-((4-methylpyridin-3-yl)methyl)piperidine-4-carboxamide]",5.58,
349,"COc1cc(-c2cc(C(=O)N3CCC(C(=O)NC4CCC(F)(F)C4)CC3)n[nH]2)c(Cl)cn1 (racemic) [Example 175, 1-(5-(5-chloro-2-methoxypyridin-4-yl)-1H-pyrazole-3-carbonyl)-N-(3,3-difluorocyclopentyl)piperidine-4-carboxamide]",5.79,

# The next lines start with the molecule.
Molecule,AC50 (His6-TEV-PPARγ-(234-505)) [nM],"pIC50 (UM-UC-9 engineered cells; Homo sapiens, UM-UC-9, 144 h)",pIC50 (UM-UC-9 engineered cells)
"COc1cc(-c2cc(C(=O)N3CC[C@@H](C(=O)N[C@H]4CCN(CC(C)(C)O)C4)CC34CC4)[nH]n2)c(F)cn1 [Example 345-B, (R)-4-(3-(5-Fluoro-2-methoxypyridin-4-yl)-1H-pyrazole-5-carbonyl)-N—((S)-1-(2-hydroxy-2-methylpropyl)pyrrolidin-3-yl)-4-azaspiro[2.5]octane-7-carboxamide]",7250,< 5.00,
"COc1cc(-c2cc(C(=O)N3CCC(C(=O)NCC4CCn5cncc5C4)CC34CC4)n[nH]2)c(F)cn1 (single isomer, unassigned) [Example 342-B]",42.8,,6.17
"COc1cc(-c2cc(C(=O)N3CCC(C(=O)Nc4cnn5ccc(C(C)O)nc45)CC34CC4)n[nH]2)c(F)cn1 (mixture of isomers) [Example 445, (S)-4-(5-(5-fluoro-2-methoxypyridin-4-yl)-1H-pyrazole-3-carbonyl)-N-(5-((R)-1-hydroxyethyl)pyrazolo[1,5-a]pyrimidin-3-yl)-4-azaspiro[2.5]octane-7-carboxamide and (S)-4-(5-(5-fluoro-2-methoxypyridin-4-yl)-1H-pyrazole-3-carbonyl)-N-(5-((S)-1-hydroxyethyl)pyrazolo[1,5-a]pyrimidin-3-yl)-4-azaspiro[2.5]octane-7-carboxamide]",1.2,,7.65
(S)—N—((R)-1-(3-chloropyridin-2-yl)ethyl)-4-(5-(5-fluoro-2-methoxypyridin-4-yl)-1H-pyrazole-3-carbonyl)-4-azaspiro[2.5]octane-7-carboxamide and (S)—N—((S)-1-(3-chloropyridin-2-yl)ethyl)-4-(5-(5-fluoro-2-methoxypyridin-4-yl)-1H-pyrazole-3-carbonyl)-4-azaspiro[2.5]octane-7-carboxamide [Example 360],21.8,,8.06
"COc1cc(-c2cc(C(=O)N3CCC(C(=O)Nc4cnn5cc(C(C)O)ccc45)CC34CC4)n[nH]2)c(F)cn1 (mixture of isomers) [Example 495, (S)-4-(5-(5-fluoro-2-methoxypyridin-4-yl)-1H-pyrazole-3-carbonyl)-N-(6-((S)-1-hydroxyethyl)pyrazolo[1,5-a]pyridin-3-yl)-4-azaspiro[2.5]octane-7-carboxamide and (S)-4-(5-(5-fluoro-2-methoxypyridin-4-yl)-1H-pyrazole-3-carbonyl)-N-(6-((R)-1-hydroxyethyl)pyrazolo[1,5-a]pyridin-3-yl)-4-azaspiro[2.5]octane-7-carboxamide]",15.7,,6.73
"Cc1cc(-c2cc(C(=O)N3CC[C@H](C(=O)NC4CCC5(CCO5)CC4)CC34CC4)n[nH]2)ncn1 (stereo partly drawn) [Example 300-B, (S)-4-(5-(6-methylpyrimidin-4-yl)-1H-pyrazole-3-carbonyl)-N-(1-oxaspiro[3.5]nonan-7-yl)-4-azaspiro[2.5]octane-7-carboxamide]",995,5.82,

# From patent US12606541B2, “PPARg modulators and methods of use” (Eisai R&D Management Co., Ltd., priority 2020, dated 2026)
